Here are results for 22 compounds from article PMC6562952, “Experimental and Computational Study to Reveal the Potential of Non-Polar Constituents from Hizikia fusiformis as Dual Protein Tyrosine Phosphatase 1B and α-Glucosidase Inhibitors” (Marine Drugs, 2019).

SMILES strings stand for the structures. Like-named read-outs stand apart in the source and are kept apart here. A value given as a limit tells only on which side of the number the result lay.

One assay addresses Yeast α-glucosidase. In words: In vitro α-glucosidase inhibitory activity assay. It counts as biochemical. The settings on record: for IC50: mean ± SD of triplicate experiments; for α-glucosidase inhibitory activity (in words): under the tested concentration. The procedure: Enzyme inhibition studies were carried out spectrophotometrically in a 96-well micro-plate reader using a procedure reported by Li et al..

In assay [1] the target is T1, truncated form of human recombinant PTP1B (amino acid 1-322) (Homo sapiens, UniProt P18031).
T1 sequence (P18031 1-322): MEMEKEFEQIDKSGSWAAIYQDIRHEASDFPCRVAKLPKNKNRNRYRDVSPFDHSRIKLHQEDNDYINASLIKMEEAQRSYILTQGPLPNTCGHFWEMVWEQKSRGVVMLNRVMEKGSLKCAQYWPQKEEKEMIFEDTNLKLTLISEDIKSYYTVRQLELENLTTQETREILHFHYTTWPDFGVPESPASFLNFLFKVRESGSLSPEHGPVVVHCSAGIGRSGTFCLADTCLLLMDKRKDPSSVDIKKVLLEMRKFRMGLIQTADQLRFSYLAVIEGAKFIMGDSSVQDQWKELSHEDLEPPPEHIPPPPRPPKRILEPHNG
Put plainly: In vitro PTP1B inhibitory activity assay (pNPP substrate). The following applies: for IC50: mean ± SD of triplicate experiments, pNPP substrate.
Protocol: A truncated form of human recombinant PTP1B (amino acid 1-322) was purchased from Enzo Life Sciences (Farmingdale, NY, USA) and dithiothreitol (DTT) was purchased from Bio-Rad Laboratories (Hercules, CA, USA). All other chemicals and solvents were purchased from E. Merck, Fluka, and Sigma-Aldrich, unless otherwise stated.
The inhibitory activity of isolated compounds against truncated form of human recombinant PTP1B was evaluated using pNPP as a substrate [48]. The amount of p-nitrophenyl produced after enzymatic dephosphorylation of pNPP was estimated by measuring the absorbance at 405 nm using a micro-plate spectrophotometer (Molecular Devices, Sunnyvale, CA, USA).

For assay [2], the target named is T2, PTP1B (Homo sapiens, UniProt P18031).
T2 sequence (P18031 1-322): T1 sequence (P18031 1-322)
In words: Enzyme kinetic analysis towards PTP1B (Lineweaver-Burk plot and secondary plots). It counts as biochemical. The procedure: The inhibition constant (Ki) and inhibition mode for the inhibition of PTP1B was calculated by the Lineweaver-Burk plot and its secondary plot of the slope and the y-intercept of compounds [49, 50]. […] Graphs were generated using SigmaPlot 12.0 (Systat Software Inc., San Jose, CA, USA).

In assay [3] the test system is PTP1B. The settings on record: in vitro; cited from earlier work.
The subject of assay [4] is insulin-resistant HepG2 cells. The following applies: cited from earlier work.
Assay [5] concerns streptozotocin-induced Sprague-Dawley rats. The following applies: fucosterol from Pelvetia siliquosa; cited from earlier work.

For orientation: IC50 means the concentration at which inhibition is half-maximal. On to `C=CC(O)(CCC(C)C1CCC2C3CC=C4CC(O)CCC4(C)C3CCC12C)C(C)C` (stereo not drawn) [Compound 4, 24R and 24S-saringosterol], for which the IC50 (against Yeast α-glucosidase; in assay [1] (IC50 PTP1B)) was more than 150 µM each time. Further, the “PTP1B inhibitory activity (in words)” value in assay [1] (under the tested concentration) is on record as “no activity”.
`CC1(C)C2CC[C@]3(C)[C@H](C(=O)C=C4[C@@H]5C[C@@](C)(C(=O)O)CC[C@]5(C)CC[C@]43C)[C@@]2(C)CC[C@@H]1O` (stereo partly drawn) [Compound 23, 18β-glycyrrhetinic acid] had a half-maximal inhibitory concentration (IC50) on Yeast α-glucosidase of 129 ± 3.88 µM. Also, the “Enzyme Kinetics Inhibition Type (PTP1B)” value at PTP1B [2] is listed as “Competitive”.
`CCCCCC\C=C/C=C\C=C/C=C\CCCCCC(=O)O` [Compound 9, (7Z,9Z,11Z,13Z)-icosa-7,9,11,13-tetraenoic acid]: the concentration for half-maximal inhibition (IC50) on Yeast α-glucosidase came out at 34.9 ± 2.39 µM; in assay [1] (IC50 PTP1B) it was 10.7 ± 0.17 µM.
For `CC/C=C\C/C=C\C/C=C\CCCCCCC(=O)O` [Compound 7, (8Z,11Z,14Z)-heptadeca-8,11,14-trienoic acid] the same measures were more than 200 µM and 4.86 ± 1.36 µM.
For `CC1(C)[C@@H](O)CC[C@]2(C)[C@H]3C(=O)C=C4[C@H]5C[C@@](C)(C(=O)O)CC[C@]5(C)CC[C@@]4(C)[C@]3(C)CC[C@@H]12` [Compound 22, 18α-glycyrrhetinic acid], the midpoint of inhibition on Yeast α-glucosidase, the IC50, lay at 113.3 ± 0.7 µM. Moreover, the “Enzyme Kinetics Inhibition Type (PTP1B)” value at PTP1B [2] was “Competitive”.
Regarding `COc1cc(C(O)C(CO)Oc2ccc(CCCO)cc2O)ccc1O` (stereo not drawn) [Compound 15, 1-(4-hydroxy-3-methoxyphenyl)-2-[2-hydroxy-4-(3-hydroxypropyl)phenoxy]-1,3-propanediol], the IC50 against Yeast α-glucosidase was more than 250 µM; in assay [1] (IC50 PTP1B), more than 400 µM.
For `COC(=O)C1OC(OC2CCC3(C)C(CCC4(C)C3C(=O)C=C3C5CC(C)(C(=O)O)CCC5(C)CCC34C)C2(C)C)C(OC2OC(C(=O)O)C(O)C(O)C2O)C(O)C1O` [Compound 19, 18β-glycyrrhetinic acid-3-O-β-D-glucuronopyranosyl-1(→2)-β-D-glucuronide-6’-methyl ester], at Yeast α-glucosidase, the concentration for half-maximal inhibition (IC50) is more than 150 µM and the “α-glucosidase inhibitory activity (in words)” value was “no activity”. The “times stronger PTP1B inhibition than compound 18” value in assay [1] (ratio of IC50 versus glycyrrhizin (18)) worked out at 2.2 times.
With `CCC/C=C\CCCCCCCCCCC(=O)O` [Compound 1, (Z)-hexadec-12-enoic acid], the IC50 against Yeast α-glucosidase came out at 48.1 ± 3.37 µM; in assay [1] (IC50 PTP1B), 6.59 ± 0.09 µM.
On to `CC/C=C\C/C=C\C/C=C\CCCCCCC(=O)O` [Compound 12, (8Z,11Z,14Z)-heptadeca-8,11,14-trienoic acid], for which the half-inhibitory concentration (IC50) against Yeast α-glucosidase was 43.9 ± 0.77 µM; in assay [1] (IC50 PTP1B), 11.5 ± 0.52 µM.
As to `C/C=C(\CC[C@@H](C)[C@H]1CC[C@H]2[C@@H]3CC=C4C[C@@H](O)CC[C@]4(C)[C@H]3CC[C@]12C)C(C)C` [Compound 5, fucosterol], the results for the IC50 (at Yeast α-glucosidase; in assay [1] (IC50 PTP1B)) were more than 150 µM and 50.6 ± 1.86 µM, respectively. The “Enzyme Kinetics Inhibition Type (PTP1B)” value on PTP1B [2] was “non-competitive”. For the same compound, the “PTP1B inhibition type (literature)” value in the assay on PTP1B [3] is listed as “non-competitive”. Further, in assay [4], the “effect on insulin resistance” value is on record as “improved insulin resistance”. The anti-diabetic activity entry in assay [5] is recorded as “anti-diabetic activity”.
On to `OCC1OC(OCc2ccccc2)C(O)C(O)C1O` (stereo not drawn) [Compound 16, benzyl alcohol alloside], for which the IC50 against Yeast α-glucosidase is more than 250 µM; in assay [1] (IC50 PTP1B), more than 400 µM.
The corresponding values for `CC(=O)C=C=C1C(C)(C)CC(OC(C)=O)CC1(C)O` [Compound 20, (3R)-4-[(2R,4S)-4-acetoxy-2-hydroxy-2,6,6-trimethylcyclohexylidene]but-3-en-2-one] are more than 250 µM and 323.2 ± 0.84 µM.
Take `CCCC/C=C\C/C=C\C/C=C\CCCCCC(=O)O` [Compound 8, (7Z,10Z,13Z)-octadeca-7,10,13-trienoic acid]: the half-maximal inhibitory concentration (IC50) came to 112 ± 1.44 µM at Yeast α-glucosidase and 13.58 ± 0.1 µM in assay [1] (IC50 PTP1B).
Take `CC1(C)[C@@H](O[C@H]2O[C@H](C(=O)O)[C@@H](O)[C@H](O)[C@H]2O[C@@H]2O[C@H](C(=O)O)[C@@H](O)[C@H](O)[C@H]2O)CC[C@]2(C)[C@H]3C(=O)C=C4[C@@H]5C[C@@](C)(C(=O)O)CC[C@]5(C)CC[C@@]4(C)[C@]3(C)CC[C@@H]12` [Compound 18, 18β-glycyrrhetinic acid-3-O-β-D-glucuronopyranosyl-1(→2)-β-D-glucuronide]: the IC50 was more than 150 µM at Yeast α-glucosidase and 110.3 ± 0.39 µM in assay [1] (IC50 PTP1B). For the same compound, the “α-glucosidase inhibitory activity (in words)” value with Yeast α-glucosidase was “no activity”.
For the compound `C=C(COC(=O)CCCCCC(=O)OCC(O)COC(=O)CCC/C=C\C/C=C\C/C=C\CCCCCCCC)C(=O)O` (stereo not drawn) [Compound 13, 2-(7′-(2″-hydroxy-3″-((5Z,8Z,11Z)-icosatrienoyloxy)propoxy)-7′-oxoheptanoyl)oxymethylpropenoic acid], the results for the half-inhibitory concentration (IC50) (against Yeast α-glucosidase; in assay [1] (IC50 PTP1B)) were more than 150 µM and 4.92 ± 0.01 µM, respectively. On PTP1B [2], the “Enzyme Kinetics Inhibition Type (PTP1B)” value was “Non-competitive”.
As for `CCCCCCCCCCCCCCCC(=O)O` [Compound 2, palmitic acid], the values for the half-inhibitory concentration (IC50) (against Yeast α-glucosidase; in assay [1] (IC50 PTP1B)) were 93.6 ± 3.68 µM and 49.4 ± 1.39 µM, respectively.
Consider `CC/C=C\C/C=C\C/C=C\C/C=C\CCCCC(=O)O` [Compound 10, (6Z,9Z,12Z,15Z)-octadeca-6,9,12,15-tetraenoic acid], for which the results for the IC50 (against Yeast α-glucosidase; in assay [1] (IC50 PTP1B)) were more than 200 µM and 16.43 ± 0.07 µM, respectively.
For the compound `COc1cc([C@H]2Oc3c(O)cc(CCCO)cc3[C@@H]2CO)ccc1O` [Compound 14, cedrusin], the half-inhibitory concentration (IC50) turned out to be 134 ± 3.86 µM at Yeast α-glucosidase and 174 ± 5.44 µM in assay [1] (IC50 PTP1B).
As for `CC1(C)CC2CC(C)(O2)/C1=C/C(=O)O` (stereo not drawn) [Compound 17, madhusic acid A], the IC50 was more than 300 µM at Yeast α-glucosidase and more than 400 µM in assay [1] (read-out: IC50 PTP1B).
Take `CC(C)C1(CC[C@@H](C)[C@H]2CCC3C4CC=C5C[C@@H](O)CC[C@]5(C)C4CC[C@@]32C)OC1C` (mixture of isomers) [Compound 6, 24R,28R and 24S,28R-epoxy-24-ethylcholesterol]: the half-maximal inhibitory concentration (IC50) is more than 150 µM against Yeast α-glucosidase and 16.7 ± 0.36 µM in assay [1] (IC50 PTP1B). For the same compound, at PTP1B [2], the “Enzyme Kinetics Inhibition Type (PTP1B)” value is listed as “Non-competitive”. Also, the “times stronger PTP1B inhibitory activity than 5” value in assay [1] (ratio of IC50 versus fucosterol (5)) is 3 times.
Consider `CCCCCCCC/C=C\CCCCCCCC(=O)O` [Compound 3, (Z)-octaec-9-enoic acid], for which the half-maximal inhibitory concentration (IC50) at Yeast α-glucosidase came to 113 ± 2.47 µM; in assay [1] (IC50 PTP1B), 13.7 ± 0.49 µM.
The corresponding values for `NCCc1ccc(O)cc1` [Compound 21, tyramine] are 273 ± 5.65 µM and 188 ± 3.21 µM.
